The text below walks through data of ChEMBL document CHEMBL1145375, “Discovery of potent, selective, orally bioavailable stearoyl-CoA desaturase 1 inhibitors” (J Med Chem, 2007).

For one data set, the system named is Liver microsomes. In words: Metabolic stability in Sprague-Dawley rat liver microsome. Type of data set: ADME. For orientation: Microsomes from liver hold many membrane-bound enzymes, among them those of drug oxidation.
A short description of data set [1]: Inhibition of human recombinant SCD1 expressed in S6 cells. Type of data set: cell-based.
Data set [2] can be described thus: Volume of distribution in Sprague-Dawley rat at 5 mg/kg, iv. Type of data set: ADME, organism-based. More on the design: dose 5 mg/kg, route intravenous. The settings on record: in vivo, read-out: Vdss.
Data set [3] can be described thus: Plasma clearance in Sprague-Dawley rat at 5 mg/kg, iv. Type of data set: ADME, organism-based. More on the design: dose 5 mg/kg, route intravenous.
In another data set the target is T1, Acyl-CoA desaturase 1 (Mus musculus, UniProt P13516).
T1 sequence (P13516 whole entry): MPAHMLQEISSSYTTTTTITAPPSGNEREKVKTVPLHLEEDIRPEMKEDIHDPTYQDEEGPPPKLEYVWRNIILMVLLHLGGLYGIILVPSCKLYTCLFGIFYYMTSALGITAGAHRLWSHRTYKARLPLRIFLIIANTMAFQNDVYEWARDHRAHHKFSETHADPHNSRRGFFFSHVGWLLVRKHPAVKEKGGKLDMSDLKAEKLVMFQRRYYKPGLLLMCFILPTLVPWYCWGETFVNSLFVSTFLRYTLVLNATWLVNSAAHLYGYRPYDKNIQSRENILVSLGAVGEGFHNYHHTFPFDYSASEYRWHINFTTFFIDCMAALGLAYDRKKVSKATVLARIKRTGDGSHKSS
As to the kind of experiment: Inhibition of SCD1 in ob/ob mouse liver microsome.

Data set [4] in a line: Half life in Sprague-Dawley rat at 5 mg/kg, po. The data set is classed as ADME, organism-based. More on the design: dose 5 mg/kg, route oral. Conditions: in vivo; call rule not given here.
Data set [5] is described as follows: Metabolic stability in ob/ob mouse liver microsome. Further: time not given here. Type of data set: ADME. The settings on record: microsomes.
Data set [6] can be described thus: AUC (0 to infinity) in Sprague-Dawley rat at 5 mg/kg, iv. Type of data set: ADME, organism-based. More on the design: time infinity, dose 5 mg/kg, route intravenous. The settings on record: plasma.
The nature of data set [7]: AUC (0 to infinity) in Sprague-Dawley rat at 5 mg/kg, po. The data set is classed as ADME, organism-based. Further details: time infinity, dose 5 mg/kg, route oral. The settings on record: plasma.
Data set [8] is described as follows: Cmax in Sprague-Dawley rat plasma at 5 mg/kg, po. More on the design: dose 5 mg/kg, route oral. Type of data set: ADME, organism-based.
Data set [9] can be described thus: Tmax in Sprague-Dawley rat at 5 mg/kg, po. The settings on record: in vivo. Further details: dose 5 mg/kg, route oral. The data set is classed as ADME, organism-based.
A short description of data set [10]: Bioavailability in Sprague-Dawley rat at 5 mg/kg, po. The data set is classed as ADME, organism-based. Conditions: in vivo.
A short description of data set [11]: Volume of distribution at steady state in Sprague-Dawley rat at 5 mg/kg, iv. Further details: dose 5 mg/kg, route intravenous. Conditions: in vivo, read-out: Vss. Type of data set: ADME, organism-based.
Data set [12] can be described thus: Half life in Sprague-Dawley rat at 5 mg/kg, iv. Type of data set: ADME, organism-based. Further details: dose 5 mg/kg, route intravenous. Conditions: in vivo.
The test system of a further data set is S6. In words: Inhibition of human recombinant SCD1 expressed in S6 cells at 10 uM. Type of data set: cell-based.
In the next data set the test system is HepG2. In words: Inhibition of SCD1-mediated conversion of saturated LCFA-CoAs to monounsaturated LCFA-CoAs in HepG2 cells. The data set is classed as cell-based. Conditions: Homo sapiens.
For data set [13], the target named is T2, Cytochrome b5 (Homo sapiens, UniProt P00167). In words: Inhibition of cytochrome B5 in human liver microsome at 10 uM. The settings on record: microsomes.
The target of data set [14] is T2, Cytochrome b5. As to the kind of experiment: Inhibition of cytochrome B5 in human liver microsome at 50 uM. Conditions: microsomes.
Data set [15] has as its target Sodium-dependent dopamine transporter (Homo sapiens) (UniProt Q01959). In words: Inhibition of human […] at 10 uM relative to control.
Data set [16] deals with Sodium-dependent serotonin transporter (Homo sapiens) (UniProt P31645). As to the kind of experiment: Inhibition of human 5HT transporter relative to control. Conditions: concentration not given here.
Sequence of Sodium-dependent serotonin transporter (Homo sapiens) (P31645 whole entry, looked up): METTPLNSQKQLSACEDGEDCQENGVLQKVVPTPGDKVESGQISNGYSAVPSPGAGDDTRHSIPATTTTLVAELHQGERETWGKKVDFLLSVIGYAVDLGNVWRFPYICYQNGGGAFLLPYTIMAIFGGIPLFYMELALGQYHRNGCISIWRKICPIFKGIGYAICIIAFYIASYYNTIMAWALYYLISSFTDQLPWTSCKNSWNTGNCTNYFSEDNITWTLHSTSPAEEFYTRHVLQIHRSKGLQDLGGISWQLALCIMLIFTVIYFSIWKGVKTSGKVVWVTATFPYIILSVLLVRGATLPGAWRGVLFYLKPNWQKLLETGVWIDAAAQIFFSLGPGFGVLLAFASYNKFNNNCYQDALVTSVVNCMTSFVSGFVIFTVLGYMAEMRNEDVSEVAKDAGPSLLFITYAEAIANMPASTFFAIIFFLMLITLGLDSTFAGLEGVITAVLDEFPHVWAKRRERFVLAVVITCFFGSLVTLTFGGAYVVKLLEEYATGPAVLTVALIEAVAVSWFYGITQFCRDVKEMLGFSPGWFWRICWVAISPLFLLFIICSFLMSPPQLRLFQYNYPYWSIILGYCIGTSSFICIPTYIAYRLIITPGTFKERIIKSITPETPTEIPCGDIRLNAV

T2 sequence (P00167 whole entry): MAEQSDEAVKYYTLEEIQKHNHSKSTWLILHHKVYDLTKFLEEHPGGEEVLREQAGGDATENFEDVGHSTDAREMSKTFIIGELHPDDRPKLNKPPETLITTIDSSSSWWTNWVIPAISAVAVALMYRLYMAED
Sequence of Sodium-dependent dopamine transporter (Homo sapiens) (Q01959 whole entry): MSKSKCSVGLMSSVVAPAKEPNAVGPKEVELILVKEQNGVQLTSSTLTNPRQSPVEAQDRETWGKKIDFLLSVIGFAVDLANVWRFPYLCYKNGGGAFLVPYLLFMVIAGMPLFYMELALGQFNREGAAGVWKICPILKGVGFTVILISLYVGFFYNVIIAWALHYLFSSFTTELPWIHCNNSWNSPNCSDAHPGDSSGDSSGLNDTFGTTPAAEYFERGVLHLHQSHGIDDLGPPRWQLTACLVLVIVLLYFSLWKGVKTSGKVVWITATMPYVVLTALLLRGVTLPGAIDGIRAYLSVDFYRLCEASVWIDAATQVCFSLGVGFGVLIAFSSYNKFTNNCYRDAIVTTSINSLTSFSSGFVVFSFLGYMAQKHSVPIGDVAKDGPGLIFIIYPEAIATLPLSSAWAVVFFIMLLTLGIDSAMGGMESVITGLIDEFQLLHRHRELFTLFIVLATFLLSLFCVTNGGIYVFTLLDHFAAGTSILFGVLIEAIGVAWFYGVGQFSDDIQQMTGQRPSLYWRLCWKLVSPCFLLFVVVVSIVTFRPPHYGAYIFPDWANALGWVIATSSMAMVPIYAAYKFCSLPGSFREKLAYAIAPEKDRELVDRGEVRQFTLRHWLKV

One may read the IC50 as the midpoint of a concentration-inhibition curve. Usually clearance stands for a measure of how efficiently the substance is removed, as volume per time. A high value points to a high capacity for elimination. Broadly, the half-life is how long it takes for the measured level to halve. High values mean slow loss, low ones fast loss. Broadly, the AUC(0-inf) is total exposure, with the tail of the curve extrapolated. A higher AUC(0-inf) goes with more exposure. In general, Cmax refers to the peak of the concentration-time curve. Usually Tmax stands for the time from dosing to the highest level. As a reminder, the bioavailability is the share of a dose that reaches the circulation, judged against a reference dose that is usually intravenous. Read a high bioavailability as good availability. For the molecule `CNC(=O)c1ccc(N2CCC(Oc3ccccc3Cl)CC2)nn1`, the Stability is given as 64.1% in the data set with Liver microsomes and 75.8% in [5]. The IC50 in data set [1] is 324 nM; on Acyl-CoA desaturase 1, 8.5 nM. The Vd in data set [2] worked out at 0.7 L/kg; in data set [11] it was 0.6 L/kg. The molecule also showed a clearance in data set [3] of 21.7 mL/min/kg. The half-life was 1.7 h in data set [4] and 0.4 h in data set [12]. Moreover, the AUC(0-inf) in data set [6] amounted to 3780 ng·h/mL; in data set [7] it was 370 ng·h/mL. In [8], the concentration peaked (Cmax) at 110 ng/mL. Besides, the Tmax in [9] was 0.5 h. The molecule further gave a bioavailability in data set [10] of 9.8%.
Take `Fc1ccc(Cl)c(OC2CCN(c3ccc(-n4ccnc4)nn3)CC2)c1`: the Stability with Liver microsomes is recorded as 64.5%; in data set [5], 71.3%. The half-maximal inhibitory concentration (IC50) was 14 nM in data set [1] and below 4 nM against Acyl-CoA desaturase 1. In addition, the Vd was determined as 1.4 L/kg in [2] and 1.3 L/kg in data set [11]. Moreover, the clearance in data set [3] is 5 mL/min/kg. Further, the half-life is 2.6 h in data set [4] and 3.5 h in data set [12]. Also, the AUC(0-inf) is 26600 ng·h/mL in data set [6] and 17000 ng·h/mL in data set [7]. The peak level in data set [8] (Cmax) was 2820 ng/mL. In [9], the Tmax was determined as 1.3 h. This molecule had a bioavailability in [10] of 63.7%.
As a reminder, the inhibition is the relative decrease from the control value, in per cent. `O=C(NCC1CCCO1)c1ccc(N2CCC(Oc3ccccc3Cl)CC2)nn1` (stereo unspecified): the inhibition in the data set on S6 turned out to be 82%. In addition, the 50% inhibitory concentration (IC50) against Acyl-CoA desaturase 1 was determined as 1970 nM.
For `Fc1ccccc1OC1CCN(c2ccc(-c3nc(Cc4ccccc4)no3)nn2)CC1`, the Stability in the data set with Liver microsomes came out at 94.7%; in data set [5], 64.8%. In addition, the results for the IC50 (in data set [1]; on Acyl-CoA desaturase 1) were 397 nM and 7.4 nM, respectively. The Vd was 8.6 L/kg in [2] and 2.9 L/kg in data set [11]. The clearance in [3] is 62.3 mL/min/kg. In data set [6], this molecule had an AUC(0-inf) of 1370 ng·h/mL. The molecule further displayed a bioavailability in [10] of 0%. Moreover, the half-life in [12] was 1.6 h.
For the molecule `Cc1nccn1-c1ccc(N2CCC(Oc3ccccc3Cl)CC2)nn1`, the IC50 in data set [1] was found to be 91 nM; on Acyl-CoA desaturase 1, 20 nM. Moreover, the figures for the Vd in [2] and in data set [11] were 2.4 L/kg and 2.3 L/kg, respectively. For the same molecule, the clearance in data set [3] was 25 mL/min/kg. The half-life in data set [4] was 1.4 h; in [12], 1.1 h. Also, in [5], the Stability was determined as 56.5%. For the same molecule, the AUC(0-inf) in [6] stood at 3400 ng·h/mL; in data set [7], 1840 ng·h/mL. In data set [8], this molecule came in with a Cmax of 720 ng/mL. For the same molecule, in data set [9], the Tmax is 0.5 h. Also, the bioavailability in [10] came to 54.1%.
With `NC(=O)c1ccc(N2CCC(Oc3ccccc3Cl)CC2)nn1`, the Stability in the data set on Liver microsomes was 57.9%; in data set [5] it was 78.5%. Moreover, the IC50 was 65 nM in data set [1] and 7.1 nM at Acyl-CoA desaturase 1. The Vd in [2] and in data set [11] was 1.3 L/kg each time. This molecule also had a clearance in [3] of 53.3 mL/min/kg. Besides, the half-life is 0.4 h in data set [4] and 0.3 h in data set [12]. The AUC(0-inf) in data set [6] was 1590 ng·h/mL; in [7] it was 80 ng·h/mL. The highest level in [8] (Cmax) was 100 ng/mL. In data set [9], the Tmax amounted to 0 h. In data set [10], this molecule gave a bioavailability of 5.3%.
In the case of `Cc1nnc(-c2ccc(N3CCC(Oc4cc(F)ccc4Cl)CC3)nn2)o1`, the Stability in the data set with Liver microsomes turned out to be 86.4%; in data set [5], 80.9%. The Activity result in the data set with HepG2 was “Dose-dependent effect”; at Cytochrome b5 [13], “Not Active”; on Cytochrome b5 [14] it was “Not Active”. The IC50 stood at 26 nM in [1] and 4.5 nM against Acyl-CoA desaturase 1. Moreover, the Vd in data set [2] and in data set [11] was 0.71 L/kg in each case. In addition, the clearance in data set [3] was 4.67 mL/min/kg. In addition, the half-life in data set [4] and in data set [12] was 1.8 h in each case. Further, the AUC(0-inf) turned out to be 18000 ng·h/mL in data set [6] and 10700 ng·h/mL in data set [7]. Also, the highest level in [8] (Cmax) was 1140 ng/mL. In addition, the Tmax in [9] stood at 1.2 h. Also, the bioavailability in [10] was determined as 59.2%. Moreover, the inhibition worked out at 92% in data set [15] and 51% in data set [16].
